Experiment [1] addresses T1, NR4A1 (Homo sapiens, UniProt P22736).
T1 construct: Panc1 cells were transfected with a GAL4-NR4A1 (full length) construct; expressed in transfected cells; host or cells: Panc1
As to the kind of experiment: GAL4-NR4A1 / UAS5-luc transactivation reporter assay in Panc1 cells. It is filed as cell-based. Particulars: Panc1 cells transfected with GAL4-NR4A1 (full length) and UAS5-luc reporter; FIG. 2A/2B. The source says: (§1) These compounds bind the receptor and are receptor antagonists. Thus, C-DIMs are the first NR4A1 antagonists that inhibit NR4A1-mediated pro-oncogenic genes/pathways. The transactivation and NR4A1 binding of the p-hydroxyphenyl (DIM-C-pPhOH) analog was initially investigated.
On the technique in general: In a reporter assay the amount or activity of a reporter protein is the signal.

The target of experiment [2] is ligand binding domain (LBD) of NR4A1 (Homo sapiens, UniProt P22736). As to the kind of experiment: Fluorescence quenching binding assay with His-NR4A1 (LBD). Particulars: His-tagged ligand binding domain of NR4A1.
ligand binding domain (LBD) of NR4A1, sequence (P22736 360-595 limits assumed): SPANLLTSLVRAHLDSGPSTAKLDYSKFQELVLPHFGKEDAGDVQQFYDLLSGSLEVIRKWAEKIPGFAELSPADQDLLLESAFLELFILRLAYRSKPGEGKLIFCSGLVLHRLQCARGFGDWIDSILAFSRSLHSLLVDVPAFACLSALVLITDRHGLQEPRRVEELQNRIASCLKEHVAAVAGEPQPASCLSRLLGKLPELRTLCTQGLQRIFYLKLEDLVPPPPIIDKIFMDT
Excerpt: as §1
Using a fluorescent binding assay, a library of C-DIM compounds were screened. Specifically, 14 different C-DIM analogs with pPhX on the bridging carbon (i.e., as R8) were screened, where X was CF3, Br, F, t-Butyl, OCH3, N-dimethylamino, H, OH, C6H5, CN, CH3, Cl, I and CO2Me. Each analog bound the ligand binding domain of NR4A1 and KD values for binding varied from 0.1-0.71 μM.

The subject of experiment [3] is MDA-MB-231 cells. The experiment in a line: Migration/invasion of MDA-MB-231 cells. It is filed as cell-based, human. As to conditions: MDA-MB-231 cells (FIG. 15). The source says: FIG. 15 illustrates that the NR4A1 antagonist DIM-C-pPhCO2ME inhibits migration/invasion of MDA-MB-231 cells.
(§2) Assessing downstream effects of the above β1-integrin inhibition, knockdown of NR4A1 (TR3) by RNA interference decrease migration and invasion performance of SKBr3 and MDA-MB-231 cells (FIG. 14). […] Moreover, the effects of other NR4A1 antagonists on migration and invasion of the breast cancer cells were investigated.

Experiment [4] has as its system SKBR3 cells. As to the kind of experiment: Migration/invasion of SKBR3 cells. Type of experiment: cell-based, human. As to conditions: SKBR3 cells (FIGS. 16, 17).
Excerpt: FIG. 16 illustrates that the NR4A1 antagonist DIM-C-pPhCO2ME inhibits migration/invasion of SKBR3 cells.
as §2

In experiment [5] the test system is pancreatic cancer cells. The experiment in a line: Boyden Chamber invasion assay, pancreatic cancer cells. It is filed as cell-based. As to conditions: 20 μM, p<0.001 (FIGS. 4A, 4B). The source says: FIGS. 4A and 4B illustrate that DIM-C-pPhOH decreases pancreatic cancer cell invasion in a Boyden Chamber assay. Significant inhibition with p<0.001 indicated with “#”.
Previous studies indicate that in pancreatic cancers, NR4A1 regulates pro-survival genes (e.g. survivin) through an Sp1/p300/NR4A1 complex in which Sp1 binds promoter DNA. […] A third pathway involves activation of mTOR which is due to inactivation of p53 by binding NR4A1 and this pathway is only observed in cancer cell lines and tumors expressing wild-type p53.

Experiment [6] deals with β1-integrin. As to the kind of experiment: Expression of β1-integrin and related gene products, pancreatic cancer cells. It is filed as cell-based. Particulars: 20 μM (FIG. 7). Here is the method: (§3) Discovery of NR4A1-regulated pro-invasion/migration genes was determined using Illumina Human HT-12V4 Beadchip arrays (FIGS. 5A and 5B). Knockdown of NR4A1 in Panc1 cells decreased expression of β1-integrin which is known to play an important role in cell migration and invasion. […] The loss of α5-integrin may be indirect since it was previously reported that β1-integrin silencing by RNAi decreased α5-integrin. […] Decreased adhesion to fibronectin-coated plates was also observed in pancreatic cancer cells treated with DIM-C-pPhOH (FIG. 9), confirming that siNR4A1 and NR4A1 antagonists decrease expression of β1-integrin. This represents a novel approach for targeting this pro-oncogenic factor in pancreatic cancer.

The subject of experiment [7] is pancreatic cancer cells. The experiment in a line: Adhesion to human fibronectin-coated plates, pancreatic cancer cells. It is filed as cell-based. Particulars: 20 μM, p<0.001 / p<0.005 (FIG. 9). Here is the method:
Significant inhibition with p<0.001 indicated with “#” and significant inhibition with p<0.005 indicated with “***”.
as §3

In experiment [8] the test system is L3.6pL orthotopic xenograft. As to the kind of experiment: L3.6pL orthotopic xenograft in athymic nude mice, tumor lysates by Western blot. Particulars: 30 mg/kg/d, compared to corn oil control; lysate from two animals (FIG. 10). It is filed as in vivo. The source says: The tumor lysate from two animals is shown.
Experiment [9] relates to β1-integrin. As to the kind of experiment: β1-integrin expression, MDA-MB-231 breast cancer cells. It is filed as cell-based, human. Particulars: MDA-MB-231 cells (FIGS. 11, 12).
The test system of experiment [10] is β1-integrin. The experiment in a line: β1-integrin expression, SKBR3 breast cancer cells. Particulars: SKBR3 cells (FIGS. 11, 12). Type of experiment: cell-based, human.
Experiment [11] concerns β1-integrin. The experiment in a line: β1-integrin expression, MCF-7 breast cancer cells. Particulars: MCF-7 cells. Type of experiment: cell-based.
Experiment [12] relates to β1-integrin. The experiment in a line: β1-integrin expression, RKO colon cancer cells. Type of experiment: cell-based. Particulars: RKO colon cancer cells (FIG. 13).
The test system of experiment [13] is β1-integrin. As to the kind of experiment: β1-integrin expression, SW480 colon cancer cells. It is filed as cell-based. As to conditions: SW480 colon cancer cells (FIG. 13).
The test system of experiment [14] is pancreatic cancer cells. As to conditions: stated with previous studies; cited from earlier work.
The test system of experiment [15] is L3.6pL orthotopic xenograft. As to conditions: athymic nude mice, orthotopic model; previous studies; cited from earlier work.

T1 sequence (P22736 whole entry, the tested form may be a part): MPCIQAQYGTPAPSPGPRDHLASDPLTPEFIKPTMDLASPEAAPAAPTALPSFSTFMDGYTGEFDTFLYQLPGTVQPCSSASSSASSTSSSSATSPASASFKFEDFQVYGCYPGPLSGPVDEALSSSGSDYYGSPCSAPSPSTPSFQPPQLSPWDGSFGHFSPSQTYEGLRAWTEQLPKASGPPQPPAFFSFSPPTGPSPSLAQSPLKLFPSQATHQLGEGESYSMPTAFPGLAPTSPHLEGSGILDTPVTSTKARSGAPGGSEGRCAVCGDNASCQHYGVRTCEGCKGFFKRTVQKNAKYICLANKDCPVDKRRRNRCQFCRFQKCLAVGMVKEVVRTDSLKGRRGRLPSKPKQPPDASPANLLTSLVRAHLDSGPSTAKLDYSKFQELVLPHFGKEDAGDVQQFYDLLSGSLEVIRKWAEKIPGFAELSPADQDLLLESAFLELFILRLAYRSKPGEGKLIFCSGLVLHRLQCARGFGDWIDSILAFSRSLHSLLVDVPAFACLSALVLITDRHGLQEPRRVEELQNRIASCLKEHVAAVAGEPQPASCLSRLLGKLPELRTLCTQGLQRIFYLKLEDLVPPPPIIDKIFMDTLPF

Regarding `COC(=O)c1ccc(C(c2c[nH]c3ccccc23)c2c[nH]c3ccccc23)cc1` [DIM-C-pPhCO2Me], the “luciferase activity (NR4A1-dependent transactivation)” value in [1] was “inhibits NR4A-dependent transactivation”. Besides, in experiment [2], the “binding to His-NR4A1 (LBD), fluorescence quenching” value is recorded as “binds the LBD of NR4A1”. The migration and invasion result was “inhibits migration and invasion” in [3]; “inhibits migration and invasion” in experiment [4].
Regarding `Oc1ccc(C(c2c[nH]c3ccccc23)c2c[nH]c3ccccc23)cc1` [DIM-C-pPhOH, 1,1-bis(3′-indolyl)-1-(p-hydroxyphenyl)methane], the “luciferase activity (NR4A1-dependent transactivation)” value in experiment [1] was “decreased luciferase activity”. The “binding to His-NR4A1 (LBD), fluorescence quenching” value in experiment [2] is “quenches fluorescence”. The invasion result in experiment [5] was “decreased invasion”. The “β1-integrin and related gene products” value in experiment [6] is “decreases β1-integrin and related gene products”. The “cell adhesion to human fibronectin-coated plates” value in experiment [7] is “decreases pancreatic cancer cell adhesion”. Besides, in experiment [8], the “expression of α5-integrin in tumor lysates” value is given as “decreases expression”. In addition, in experiment [8], the “expression of β1-integrin in tumor lysates” value was “decreases expression”. The β1-integrin expression entry in experiment [9] is reported as “decreased β1-integrin expression”; in experiment [10] it was “decreased β1-integrin expression”; in experiment [11], “decreased β1-integrin expression”; in [12], “decreases β1-integrin expression”; in experiment [13], “decreases β1-integrin expression”. Further, in experiment [14], the apoptosis entry is reported as “induce apoptosis”. In addition, the “pancreatic cancer cell growth” value in experiment [14] was “inhibit pancreatic cancer cell growth”. For the same molecule, the tumor growth result in experiment [15] is “inhibits tumor growth”.

The values above are taken from patent US20160303081A1, “INHIBITORS OF BETA1-INTEGRIN AND METHODS OF USE” (The Texas A&M University System, priority 2015, published 2016).
